The structures appear in SMILES notation. pEC50: −log10 of the molar value.

T1 sequence (P13945 whole entry): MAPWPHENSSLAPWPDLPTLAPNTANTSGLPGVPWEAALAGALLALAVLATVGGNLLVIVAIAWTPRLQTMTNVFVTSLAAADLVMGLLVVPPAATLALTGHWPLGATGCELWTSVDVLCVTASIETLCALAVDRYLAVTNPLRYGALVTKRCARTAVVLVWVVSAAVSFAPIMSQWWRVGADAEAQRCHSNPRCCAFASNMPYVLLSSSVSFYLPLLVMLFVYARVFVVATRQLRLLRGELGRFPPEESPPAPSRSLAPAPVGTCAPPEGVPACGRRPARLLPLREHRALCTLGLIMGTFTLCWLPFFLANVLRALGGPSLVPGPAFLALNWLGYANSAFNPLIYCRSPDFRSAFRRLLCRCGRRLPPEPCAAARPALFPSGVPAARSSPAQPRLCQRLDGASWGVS

The first test addresses T1, human β3 adrenergic receptor (Homo sapiens, UniProt P13945).
T1 construct: expressed in transfected cells; host or cells: Chinese hamster ovary (CHO) cells, stably transfected
The test can be described thus: Beta-3 agonist in vitro functional assay: cAMP production (LANCE TR-FRET) in CHO cells stably transfected with the cloned β3 receptor. It counts as cell-based. The following applies: Table 4; cAMP, CHO cells; read-out: Human β3 agonist functional activity. In a few lines:
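CHO cells stably expressing the cloned receptor, in HEPES-buffered HBSS with BSA and 0.6 mM IBMX, 6,000 cells/well, exposed to compound for 30 min at RT. cAMP read by LANCE TR-FRET against a cAMP standard curve. Isoproterenol defines maximal stimulation.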
Take `O=C(c1ccc(C[C@@H]2CC[C@H]([C@H](O)c3ccccc3)N2)cc1)N1CCC2(CCOC2=O)C1` (stereo partly drawn) [Example 13]: the pEC50 was 7.00 to 8.00. As to `O=C(c1ccc(C[C@@H]2CC[C@H]([C@H](O)c3ccccc3)N2)cc1)N1Cc2cnn(C(F)(F)F)c2C1` [Example 30], the pEC50 is 6.00 to 7.00. The same measure, in the same setting: for `CCS(=O)(=O)n1cc2c(n1)CN(C(=O)c1ccc(C[C@@H]3CC[C@H]([C@H](O)c4ccccc4)N3)cc1)C2` [Example 29] the value was 6.00 to 7.00; for `O=C(c1ccc(C[C@@H]2CC[C@H]([C@H](O)c3ccccc3)N2)cc1)N1CCc2onc(O)c2C1` [Example 53], 5.52 to 6.00.

Regarding `O=C(c1ccc(C[C@@H]2CC[C@H]([C@H](O)c3ccccc3)N2)cc1)N1CCC2c3ccccc3OC2C1` (stereo partly drawn) [Example 56], the pEC50 was 8.00 to 9.00. For `Cn1ccnc1C1CCCCN1C(=O)c1ccc(C[C@@H]2CC[C@H]([C@H](O)c3ccccc3)N2)cc1` (stereo partly drawn) [Example 51], the pEC50 was 6.00 to 7.00.

Still in this test, the particulars now being: Table 5; cAMP, CHO cells; read-out: Human β3 agonist functional activity.
Take `NC(=O)C1CCN(C(=O)c2ccc(C[C@@H]3CC[C@H]([C@H](O)c4ccccc4)N3)cc2)CC1` [Example 116]: the pEC50 is 6.00 to 7.00. On the same count and under the same terms, next, `O=C(c1ccc(C[C@@H]2CC[C@H]([C@H](O)c3ccccc3)N2)cc1)N1CCC(N2C(=O)OCc3ccccc32)CC1` [Example 69]: 8.00 to 9.00; `O=C(c1ccc(C[C@@H]2CC[C@H]([C@H](O)c3cccnc3)N2)cc1)N1CCC(n2cc(-c3ccccc3)[nH]c2=O)CC1` [Example 85]: 7.00 to 8.00; `O=C(c1ccc(C[C@@H]2CC[C@H]([C@H](O)c3ccccc3)N2)cc1)N1CCC(n2ncnn2)CC1` [Example 102]: 8.00 to 9.00. The same measure, in the same setting: next, `CS(=O)(=O)c1ccccc1OC1CCN(C(=O)c2ccc(C[C@@H]3CC[C@H]([C@H](O)c4ccccc4)N3)cc2)CC1` [Example 156]: 7.00 to 8.00; `O=C(c1ccc(C[C@@H]2CC[C@H]([C@H](O)c3ccccc3)N2)cc1)N1CCC(Oc2ccccn2)CC1` [Example 152]: 7.00 to 8.00; `O=C(c1ccc(C[C@@H]2CC[C@H]([C@H](O)c3ccccc3)N2)cc1)N1CCC(Cn2ccnc2)CC1` [Example 142]: 6.00 to 7.00. Still for that read-out and setting: for `O=C(c1ccc(C[C@@H]2CC[C@H]([C@H](O)c3ccccc3)N2)cc1)N1CCC(Cc2ccc(F)cc2)CC1` [Example 145] the value was 7.00 to 8.00; for `O=C(c1ccc(C[C@@H]2CC[C@H]([C@H](O)c3ccccc3)N2)cc1)N1CCC(n2c(=O)[nH]c3nc(F)ccc32)CC1` [Example 73], 7.00 to 8.00.

Staying with this test, now noted: Table 8; Beta-3 agonist in vitro functional assay; read-out: Human β3 agonist functional activity.
On to `O=C(c1ccc(C[C@@H]2CC[C@H]([C@H](O)c3ccccc3)N2)cc1)N1CCC2(CCc3ccccc3S2(=O)=O)CC1` [Example 336], for which the pEC50 was 8.00 to 9.00. As to `O=C(c1ccc(C[C@@H]2CC[C@H]([C@H](O)c3ccccc3)N2)cc1)N1CCC2(CCOC2)CC1` [Example 311], the pEC50 is 6.00 to 7.00. For `CCCN(CCC)C(=O)CC1(c2ccccc2)CCN(C(=O)c2ccc(C[C@@H]3CC[C@H]([C@H](O)c4ccccc4)N3)cc2)CC1` [Example 248], the pEC50 was 6.00 to 7.00. Consider `O=C1OC2(CCN(C(=O)c3ccc(C[C@@H]4CC[C@H]([C@H](O)c5cccnc5)N4)cc3)CC2)c2ccccc21` [Example 284], for which the pEC50 was 8.00 to 9.00.

Turning to `O=C(c1ccc(C[C@@H]2CC[C@H]([C@H](O)c3ccccc3)N2)cc1)N1CCC2(CCCC2O)CC1` (stereo partly drawn) [Example 314], the pEC50 is 6.00 to 7.00.

Still in this test, the particulars now being: Table 9; Beta-3 agonist in vitro functional assay; read-out: Human β3 agonist functional activity.
`Cc1cccnc1N1CCN(C(=O)c2ccc(C[C@@H]3CC[C@H]([C@H](O)c4ccccc4)N3)cc2)CC1` [Example 364]: the pEC50 was 7.00 to 8.00. Still for that read-out and setting: next, `O=C(O)COc1cccnc1N1CCN(C(=O)c2ccc(C[C@@H]3CC[C@H]([C@H](O)c4ccccc4)N3)cc2)CC1` [Example 367]: 6.00 to 7.00; `O=C(c1ccc(C[C@@H]2CC[C@H]([C@H](O)c3ccccc3)N2)cc1)N1CCN(c2ccc3c(c2)OCO3)CC1` [Example 353]: 6.00 to 7.00; `O=C(c1ccc(C[C@@H]2CC[C@H]([C@H](O)c3ccccc3)N2)cc1)N1CCN(c2nccnc2Cl)CC1` [Example 371]: 6.00 to 7.00. With `O=C(c1ccc(C[C@@H]2CC[C@H]([C@H](O)c3ccccc3)N2)cc1)N1CCN(Cc2ncccc2Br)CC1` [Example 416], the pEC50 was 7.00 to 8.00.

Still in this test, the particulars now being: Table 10; Beta-3 agonist in vitro functional assay; read-out: Human β3 agonist functional activity.
With `CC(C(=O)N1CCCC2(CCO2)C1)N1CCN(C(=O)c2ccc(C[C@@H]3CC[C@H]([C@H](O)c4ccccc4)N3)cc2)CC1` (stereo partly drawn) [Example 495], the pEC50 was 7.00 to 8.00. Regarding `CC(C(=O)NCCC1CC1)N1CCN(C(=O)c2ccc(C[C@@H]3CC[C@H]([C@H](O)c4ccccc4)N3)cc2)CC1` (stereo partly drawn) [Example 448], the pEC50 was 7.00 to 8.00. Still for that read-out and setting: next, `CC(C(=O)NC(C)(C)CO)N1CCN(C(=O)c2ccc(C[C@@H]3CC[C@H]([C@H](O)c4ccccc4)N3)cc2)CC1` (stereo partly drawn) [Example 444]: 6.00 to 7.00; `CC(C(=O)NC1(c2ccccn2)CC1)N1CCN(C(=O)c2ccc(C[C@@H]3CC[C@H]([C@H](O)c4ccccc4)N3)cc2)CC1` (stereo partly drawn) [Example 470]: 7.00 to 8.00. Still for that read-out and setting: for `CC(C(=O)NCC1CCCO1)N1CCN(C(=O)c2ccc(C[C@@H]3CC[C@H]([C@H](O)c4ccccc4)N3)cc2)CC1` (stereo partly drawn) [Example 455] the value was 7.00 to 8.00. On the same count and under the same terms, for `CC(C(=O)N1CCC[C@H]1C(N)=O)N1CCN(C(=O)c2ccc(C[C@@H]3CC[C@H]([C@H](O)c4ccccc4)N3)cc2)CC1` (stereo partly drawn) [Example 478] the value was 6.00 to 7.00; for `CC(C(=O)N1C[C@H](F)[C@@H](F)C1)N1CCN(C(=O)c2ccc(C[C@@H]3CC[C@H]([C@H](O)c4ccccc4)N3)cc2)CC1` (stereo partly drawn) [Example 476], 7.00 to 8.00.

The test is the same for the next values; noted with them: Table 11; cAMP, CHO cells; read-out: Human β3 agonist functional activity.
As for `O=C(c1ccc(C[C@@H]2CC[C@H]([C@H](O)c3ccccc3)N2)cc1)N1CCCN(Cc2ccccn2)CC1` [Example 551], the pEC50 is 7.00 to 8.00.

Still in this test, the particulars now being: Table 12; human β3 functional activity given as ranges; read-out: Human β3 agonist functional activity.
As for `O=C(c1ccc(CC2CCC(C(O)c3ccccc3)N2)cc1)N1CCC2(CC1)CC(C(F)(F)F)OC2=O` (single isomer, unassigned) [Example 566], the pEC50 is 7.00 to 8.00. Turning to `CC(C)C1CC2(CCN(C(=O)c3ccc(CC4CCC(C(O)c5ccccc5)N4)cc3)CC2)C(=O)O1` (single isomer, unassigned) [Example 567], the pEC50 was 8.00 to 9.00. Still for that read-out and setting: next, `O=C1OCCC1N1CCN(C(=O)c2ccc(CC3CCC(C(O)c4ccccc4)N3)cc2)CC1` (single isomer, unassigned) [Example 604]: 8.00 to 9.00. Still for that read-out and setting: next, `CC(c1cocn1)N1CCN(C(=O)c2ccc(CC3CCC(C(O)c4ccccc4)N3)cc2)CC1` (single isomer, unassigned) [Example 586]: 7.00 to 8.00; `CC(c1nccs1)N1CCN(C(=O)c2ccc(CC3CCC(C(O)c4ccccc4)N3)cc2)CC1` (single isomer, unassigned) [Example 581]: 8.00 to 9.00; `CC(c1ccn(C)n1)N1CCN(C(=O)c2ccc(CC3CCC(C(O)c4ccccc4)N3)cc2)CC1` (single isomer, unassigned) [Example 577]: 8.00 to 9.00.

For `O=C(c1ccc(CC2CCC(C(O)c3ccccc3)N2)cc1)N1CCN(C2CCN(c3ccccc3)C2=O)CC1` (single isomer, unassigned) [Example 605], the pEC50 was 8.00 to 9.00. Same read-out and setting: for `O=C1CC(c2ccccc2)C2(CCN(C(=O)c3ccc(CC4CCC(C(O)c5cccnc5)N4)cc3)CC2)O1` (single isomer, unassigned) [Example 559] the value was 6.00 to 7.00.

Still in this test, the particulars now being: Table 13; human Beta-3 agonist functional activity given as range; read-out: Human β3 agonist functional activities.
On to `O=C(c1ccc(C[C@@H]2CC[C@H]([C@H](O)c3ccccc3)N2)c(Br)c1)N1CC2C(C1)C2n1cnnn1` (stereo partly drawn) [Example 609], for which the pEC50 is 8.00 to 9.00.

The values are drawn from patent publication US8354403B2, “Pyrrolidine derived beta 3 adrenergic receptor agonists” (Merck Sharp & Dohme Corp., priority 2009, dated 2013).
